Publication PMC11204923, “Marine Cytotoxin Santacruzamate A Derivatives as Potent HDAC1-3 Inhibitors and Their Synergistic Anti-Leukemia Effects with Venetoclax” (Marine Drugs, 2024)
Values joined by “and” are separate entries in the source; they are usually repeats but may differ in a detail not shown here. Equal entries are not always repeated.

Key:
HDAC3 = molecular target: T1, HDAC3 (Homo sapiens, UniProt O15379); test: In vitro HDAC inhibition fluorescence assay, HDAC3; type: biochemical
T1 construct: purchased BPS Bioscience
Procedure: (§1) All of the HDAC enzymes were purchased from BPS Bioscience. In vitro HDAC inhibition assays were conducted as previously described. In brief, 20 μL of recombinant HDAC enzyme solution (HDAC1-9, 11) was mixed with various concentrations of the tested compound (20 μL). […] After incubation at 37 °C for 2 h, the catalysis was stopped by the addition of 10 μL of developer containing 30 mg/mL trypsin and 6 μM trichostatin A (TSA). Then, 30 min later, the fluorescence intensity was measured using a microplate reader at excitation and emission wavelengths of 360 and 460 nm, respectively. The inhibition ratios were calculated from the fluorescence intensity readings of tested wells relative to those of control wells, and the IC50 curves and values were determined by GraphPad Prism 6.0, using the “log(inhibitor) vs. normalized response-variable slope” function.

HDAC4 = molecular target: T2, HDAC4 (Homo sapiens, UniProt P56524); test: In vitro HDAC inhibition fluorescence assay, HDAC4; type: biochemical
T2 construct: purchased BPS Bioscience
Procedure: (§2) All of the HDAC enzymes were purchased from BPS Bioscience. In vitro HDAC inhibition assays were conducted as previously described. In brief, 20 μL of recombinant HDAC enzyme solution (HDAC1-9, 11) was mixed with various concentrations of the tested compound (20 μL). The mixture was incubated at 37 °C for 1 h, and then, 10 μL of fluorogenic substrate (Boc-Lys (acetyl)-AMC for HDAC1, 2, 3 and 6; Boc-Lys (trifluoroacetyl)AMC for HDAC4, 5, 7, 8, 9 and 11) was added to achieve a final concentration of 50 μM. After incubation at 37 °C for 2 h, the catalysis was stopped by the addition of 10 μL of developer containing 30 mg/mL trypsin and 6 μM trichostatin A (TSA). Then, 30 min later, the fluorescence intensity was measured using a microplate reader at excitation and emission wavelengths of 360 and 460 nm, respectively. The inhibition ratios were calculated from the fluorescence intensity readings of tested wells relative to those of control wells, and the IC50 curves and values were determined by GraphPad Prism 6.0, using the “log(inhibitor) vs. normalized response-variable slope” function.

HDAC11 = molecular target: T3, HDAC11 (Homo sapiens, UniProt Q96DB2); test: In vitro HDAC inhibition fluorescence assay, HDAC11; type: biochemical
T3 construct: purchased BPS Bioscience
T3 sequence (Q96DB2 1-347): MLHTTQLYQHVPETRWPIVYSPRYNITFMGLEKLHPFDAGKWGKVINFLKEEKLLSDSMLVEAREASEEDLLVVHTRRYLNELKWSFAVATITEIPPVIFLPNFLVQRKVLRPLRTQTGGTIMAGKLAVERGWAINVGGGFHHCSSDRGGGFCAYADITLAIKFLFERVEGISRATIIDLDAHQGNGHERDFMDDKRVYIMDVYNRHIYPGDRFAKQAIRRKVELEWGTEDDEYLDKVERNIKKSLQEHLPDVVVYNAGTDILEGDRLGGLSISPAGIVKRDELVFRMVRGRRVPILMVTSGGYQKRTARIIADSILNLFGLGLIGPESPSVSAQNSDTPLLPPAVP
Procedure: as §2

HDAC1 = molecular target: T4, HDAC1 (Homo sapiens, UniProt Q13547); test: In vitro HDAC inhibition fluorescence assay, HDAC1; type: biochemical
T4 construct: purchased BPS Bioscience
Procedure: as §1

[1] = system: MV4-11, THP-1, HL60 and Kasumi-1 cells; test: Cell viability assay, four AML cell lines together; type: cell-based; details: 72 h; read-out: IC50 values against four AML cell lines (range)
Procedure: (§3) The AML cell lines MV4-11, THP-1, KASUMI-1 and HL-60 were purchased from Procell Life Science & Technology Co., Ltd. (Wuhan, China). THP-1 and KASUMI-1 were cultured in RPMI-1640 complete medium containing 10% fetal bovine serum and 1% penicillin and streptomycin. MV4-11 was cultured in IMDM complete medium containing 10% fetal bovine serum and 1% penicillin and streptomycin. HL-60 was cultured in IMDM complete medium containing 20% fetal bovine serum and 1% penicillin and streptomycin. All cell lines were cultured in an incubator with humidity set at 95%, temperature at 37 °C and 5% CO2.
(§4) MV4-11, THP-1, KASUMI-1 and HL-60 cells were plated in 96-well transparent plates (10,000 to 15,000 cells/100 μL) and after incubation overnight, cells were treated with gradient-diluted inhibitors with several concentrations. After the cells were incubated with inhibitors for 72 h, 1 mg/mL of Resazurin (Sigma-Aldrich, Saint Louis, MO, USA) was added (working concentration was 0.1 mg/mL). After incubation at 37 °C for about 3 h, the fluorescence intensity of […] was measured at 560 nm/590 nm (excitation/emission) with a Spectra Max i3 Microplate Reader, and the cell viability was determined. The IC50 curve was drawn using GraphPad Prism 9.5 software.

[2] = In vitro stability in rat plasma; type: in vitro ADME; details: 37 °C, within 24 h, degradation beginning after about 8 h
Procedure: Equal samples were collected, and 600 μL acetonitrile was added to quench enzyme reactions. The reaction mixture was swirled for 30 s and then centrifuged at 15,000 rpm at 4 °C for 15 min. The supernatant of each sample was analyzed directly by HPLC (1260 Infinity II, Agilent Technologies, Waldbronn, Germany).

HL-60 cells = test: Cell viability assay (resazurin), HL-60; type: cell-based; details: Homo sapiens, HL-60, 72 h; read-out: IC50 anti-proliferative activity HL-60
Procedure: as §3, §4

T1 sequence (O15379 whole entry): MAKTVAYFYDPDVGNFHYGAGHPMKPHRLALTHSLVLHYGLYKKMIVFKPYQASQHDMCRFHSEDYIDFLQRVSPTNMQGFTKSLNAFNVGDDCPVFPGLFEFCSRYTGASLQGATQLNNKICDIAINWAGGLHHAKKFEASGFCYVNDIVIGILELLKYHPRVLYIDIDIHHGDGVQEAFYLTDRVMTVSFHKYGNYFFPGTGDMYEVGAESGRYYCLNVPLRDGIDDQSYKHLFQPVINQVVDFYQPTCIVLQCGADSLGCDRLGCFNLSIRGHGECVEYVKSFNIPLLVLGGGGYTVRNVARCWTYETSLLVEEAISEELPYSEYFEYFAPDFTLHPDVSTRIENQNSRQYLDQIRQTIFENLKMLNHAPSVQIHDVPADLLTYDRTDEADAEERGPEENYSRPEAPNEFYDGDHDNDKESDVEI
T1 sequence (Q9Y618 395-489 partner limits assumed): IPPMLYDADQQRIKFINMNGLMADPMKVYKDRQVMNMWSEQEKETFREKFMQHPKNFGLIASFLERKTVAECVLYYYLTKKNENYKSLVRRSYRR
T4 sequence (Q13547 whole entry): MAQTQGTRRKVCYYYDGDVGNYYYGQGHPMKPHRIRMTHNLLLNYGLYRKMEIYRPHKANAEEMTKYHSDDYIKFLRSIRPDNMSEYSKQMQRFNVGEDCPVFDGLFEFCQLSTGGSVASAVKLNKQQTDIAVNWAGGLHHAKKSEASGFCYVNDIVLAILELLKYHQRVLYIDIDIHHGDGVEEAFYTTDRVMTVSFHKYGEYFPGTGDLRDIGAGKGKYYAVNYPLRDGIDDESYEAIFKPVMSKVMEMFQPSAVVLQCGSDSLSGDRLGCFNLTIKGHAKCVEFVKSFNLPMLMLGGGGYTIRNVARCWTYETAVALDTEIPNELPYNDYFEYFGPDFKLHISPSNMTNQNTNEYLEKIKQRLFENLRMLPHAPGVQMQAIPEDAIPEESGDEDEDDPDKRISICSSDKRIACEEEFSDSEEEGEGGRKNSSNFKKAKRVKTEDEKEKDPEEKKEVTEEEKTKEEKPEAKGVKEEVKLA
T2 sequence (P56524 whole entry): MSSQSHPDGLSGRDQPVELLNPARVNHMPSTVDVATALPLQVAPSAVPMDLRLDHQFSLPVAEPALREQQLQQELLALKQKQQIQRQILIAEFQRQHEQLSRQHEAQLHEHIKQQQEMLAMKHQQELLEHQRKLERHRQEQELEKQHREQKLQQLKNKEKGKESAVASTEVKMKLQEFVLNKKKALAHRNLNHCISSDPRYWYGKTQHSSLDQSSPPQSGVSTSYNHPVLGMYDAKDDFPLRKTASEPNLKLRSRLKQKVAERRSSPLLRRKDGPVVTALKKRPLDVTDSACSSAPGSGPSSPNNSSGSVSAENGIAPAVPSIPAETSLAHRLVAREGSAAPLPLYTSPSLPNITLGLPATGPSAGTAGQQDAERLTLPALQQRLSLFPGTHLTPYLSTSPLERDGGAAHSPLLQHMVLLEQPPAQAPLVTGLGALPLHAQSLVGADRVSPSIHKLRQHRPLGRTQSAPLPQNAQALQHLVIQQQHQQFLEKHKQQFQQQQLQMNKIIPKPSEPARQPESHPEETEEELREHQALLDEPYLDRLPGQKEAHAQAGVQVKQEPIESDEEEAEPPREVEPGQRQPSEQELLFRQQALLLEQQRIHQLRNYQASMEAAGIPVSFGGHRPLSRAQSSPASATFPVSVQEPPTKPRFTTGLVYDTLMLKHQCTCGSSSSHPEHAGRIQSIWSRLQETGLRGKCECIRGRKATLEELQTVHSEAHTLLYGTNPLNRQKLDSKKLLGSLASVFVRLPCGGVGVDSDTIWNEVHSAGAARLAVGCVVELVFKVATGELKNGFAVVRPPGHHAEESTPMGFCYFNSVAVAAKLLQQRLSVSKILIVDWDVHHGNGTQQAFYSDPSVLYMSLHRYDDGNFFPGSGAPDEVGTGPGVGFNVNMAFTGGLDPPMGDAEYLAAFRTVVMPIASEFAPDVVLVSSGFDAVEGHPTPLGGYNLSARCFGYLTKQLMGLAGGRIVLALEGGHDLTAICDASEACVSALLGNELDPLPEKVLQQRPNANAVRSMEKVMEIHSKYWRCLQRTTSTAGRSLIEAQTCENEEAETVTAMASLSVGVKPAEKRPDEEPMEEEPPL

Question: With `CCCNNC(=O)C=Cc1ccc(CNCCc2ccccc2)cc1` [Compound 25c, 3-(4-((Phenethylamino)methyl)phenyl)-N′-propylacrylohydrazide] as the compound, how does the IC50 (HDAC3) read?
Answer: The IC50 was 2.4 nM and 2.39 nM and 2.3 nM.

Question: What about the inhibition at 0.01 µM (HDAC3; 10 nM, read-out: Inhibition Rate of HDAC3 (%)) of the same compound?
Answer: Its inhibition at 0.01 µM is > 95%.

Question: What about the inhibition at 0.1 µM (HDAC3; 100 nM, read-out: Inhibition Rate of HDAC3 (%)) of the same compound?
Answer: Its inhibition at 0.1 µM is 95.1 ± 0.1%.

Question: What about the IC50 (HDAC4) of the same compound?
Answer: Its IC50 is > 10000 nM.

Question: And the IC50 (HDAC11)?
Answer: Its IC50 is > 10000 nM.

Question: What about the IC50 (HDAC1) of the same compound?
Answer: The IC50 was 28.1 nM and 28 nM.

Question: And the “Inhibition Rate of HDAC1 (%)” value (HDAC1; 10 nM, 0.01 µM)?
Answer: Its value is 31.1 ± 2.1%.

Question: What about the inhibition at 0.01 µM (HDAC1; 10 nM, read-out: Inhibition Rate of HDAC1 (%)) of the same compound?
Answer: Its inhibition at 0.01 µM is 31.1 ± 2.09%.

Question: And the inhibition at 0.1 µM (HDAC1; 100 nM, read-out: Inhibition Rate of HDAC1 (%))?
Answer: Its inhibition at 0.1 µM is 83.6 ± 0.4%.

Question: What about the IC50 [1] of the same compound?
Answer: The IC50 was 338 to 480 nM.

Question: And the “degradation in rat plasma” value [2]?
Answer: Its value is 35.60%.

Question: What about the IC50 (HL-60 cells) of the same compound?
Answer: Its IC50 is 480 ± 177 nM.
